Assay [1] in a line: Binding affinity to DNA HRE binding site (unknown origin) by DNase 1 footprint titrations method.
The species named for the next assay is Homo sapiens. Briefly: Binding affinity to DNA HRE binding site (unknown origin) assessed as inhibition of HIF-1alpha/ARNT heterodimer binding.
A short description of assay [2]: Binding affinity to 5'-WGWWCW-3' DNA (unknown origin).
The nature of assay [3]: Binding affinity to rat TGF-beta1 promoter AP1 binding site by gel mobility shift and SPR method. Background: SPR reads the build-up and loss of mass on a sensor chip optically.
Assay [4] relates to Human papillomavirus type 16. Put plainly: Antiviral activity against HPV16 assessed as inhibition of viral replication. In kind it is functional, organism-based. The settings on record: Human papillomavirus 16.
Assay [5] in a line: Binding affinity to 5'-TGTTAT-3' DNA (unknown origin).

Molecules are shown by their SMILES.

The values that follow come from ChEMBL document CHEMBL3232868, “Programmable DNA-binding small molecules” (Bioorg Med Chem, 2013).

By IC50 is commonly meant the point on the concentration scale where inhibition reaches its midpoint. By Kd is commonly meant a measure of binding affinity in units of concentration.

Regarding `CN(CCCNC(=O)c1cc(NC(=O)c2cc(NC(=O)c3nc(NC(=O)c4cc(NC(=O)[C@H](N)CCNC(=O)c5nc(NC(=O)c6cc(NC(=O)c7cc(NC(=O)c8sccc8Cl)cn7C)cn6C)cn5C)cn4C)cn3C)cn2C)cn1C)CCCNC(=S)Nc1ccc(-c2c3ccc(=O)cc-3oc3cc(O)ccc23)c(C(=O)O)c1`, the Ka in assay [1] came out at 6.3 ×10⁹ /M. Moreover, the INH in the assay listed under Homo sapiens was 0.25 nM. `CN(CCCNC(=O)c1cccc(C(=O)O)c1)CCCNC(=O)c1cc(NC(=O)c2cc(NC(=O)c3cc(NC(=O)c4nc(NC(=O)C[C@@H](CNC(=O)c5cc(NC(=O)c6cc(NC(=O)c7cc(NC(=O)c8nccn8C)cn7C)cn6C)cn5C)NC(=O)c5ccc(-c6ccccc6)cc5)cn4C)cn3C)cn2C)cn1C` gave an IC50 in assay [2] of 13 nM. On the same count and under the same terms, in the case of `CN(CCCNC(=O)c1cccc(C(=O)O)c1)CCCNC(=O)c1cc(NC(=O)c2cc(NC(=O)c3cc(NC(=O)c4nc(NC(=O)C[C@@H](CNC(=O)c5cc(NC(=O)c6cc(NC(=O)c7cc(NC(=O)c8nccn8C)cn7C)cn6C)cn5C)NC(=O)c5ccc([N+](=O)[O-])cc5)cn4C)cn3C)cn2C)cn1C` it was 10 nM. For `CC(=O)Nc1cc(C(=O)Nc2cc(C(=O)NCCC(=O)Nc3cc(C(=O)Nc4cn(C)c(C(=O)Nc5cc(C(=O)NCCCC(=O)Nc6cc(C(=O)Nc7cc(C(=O)Nc8cc(C(=O)NCCC(=O)Nc9cn(C)c(C(=O)Nc%10cc(C(=O)NCCC(=O)NCCCN(C)C)n(C)c%10)n9)n(C)c8)n(C)c7)n(C)c6)n(C)c5)n4)n(C)c3)n(C)c2)n(C)c1`, the Kd in assay [3] came to 1.43 nM. Turning to `CN(CCCNC(=O)c1cccc(C(=O)O)c1)CCCNC(=O)c1cc(NC(=O)c2cc(NC(=O)c3cc(NC(=O)c4nc(NC(=O)C[C@@H](CNC(=O)c5cc(NC(=O)c6cc(NC(=O)c7cc(NC(=O)c8nccn8C)cn7C)cn6C)cn5C)NC(=O)c5ccccn5)cn4C)cn3C)cn2C)cn1C`, the 50% inhibitory concentration (IC50) in assay [2] came to 21 nM. With `Cn1cc(NC(=O)c2cc(NC(=O)c3cc(NC=O)cn3C)cn2C)cc1C(=O)NCCC(=N)N` [STALLIMYCIN], the IC50 in assay [4] worked out at 33000 nM. `CN(CCCN)CCCNC(=O)CCNC(=O)c1cc(NC(=O)c2cc(NC(=O)c3cc(NC(=O)c4cc(NC(=O)CCCNC(=O)c5cc(NC(=O)c6cc(NC(=O)c7cc(NC(=O)c8nccn8C)cn7C)cn6C)cn5C)cn4C)cn3C)cn2C)cn1C` displayed a Kd in assay [5] of 1.1 nM.
